Measured values: US20050192279A1, “Pyridazinones as antagonists of alpha4 integrins” (priority 2004, published 2005)

Experiments:
[1] = target: T1, α4β1 (Homo sapiens, UniProt P05556+P13612); experiment: Ramos Cell Adhesion Assay (α4β1 Mediated Adhesion/VCAM-1); assay type: cell-based; details: Ramos cell adhesion to hVCAM-1; read-out: α4β1 IC50
T1 construct: Ramos Cell Adhesion Assay (α4β1 Mediated Adhesion/VCAM-1); endogenous in cells; host or cells: Ramos cells
Outline: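 Plates coated overnight at 4° C with recombinant hVCAM-1 at 4.0 μg/mL, pH 9.0, then blocked in PBS/1% BSA. Calcein AM-labeled Ramos cells added with compounds and left to adhere 1 h at room temperature; after washing, cells lysed in 1 M Tris pH 8.0/1% SDS.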

[2] = target: T2, human α4β7 integrin (Homo sapiens, UniProt P13612+P26010); experiment: α4β7-K562 Cell Adhesion Assay (α4β7 Mediated Adhesion/MAdCAM-1); assay type: cell-based; details: α4β7-K562 cell adhesion to hMAdCAM-1; read-out: α4β7 IC50
T2 construct: expressed in transfected cells; host or cells: K562 cells, stably transfected
T2 sequence (P13612 34-1032): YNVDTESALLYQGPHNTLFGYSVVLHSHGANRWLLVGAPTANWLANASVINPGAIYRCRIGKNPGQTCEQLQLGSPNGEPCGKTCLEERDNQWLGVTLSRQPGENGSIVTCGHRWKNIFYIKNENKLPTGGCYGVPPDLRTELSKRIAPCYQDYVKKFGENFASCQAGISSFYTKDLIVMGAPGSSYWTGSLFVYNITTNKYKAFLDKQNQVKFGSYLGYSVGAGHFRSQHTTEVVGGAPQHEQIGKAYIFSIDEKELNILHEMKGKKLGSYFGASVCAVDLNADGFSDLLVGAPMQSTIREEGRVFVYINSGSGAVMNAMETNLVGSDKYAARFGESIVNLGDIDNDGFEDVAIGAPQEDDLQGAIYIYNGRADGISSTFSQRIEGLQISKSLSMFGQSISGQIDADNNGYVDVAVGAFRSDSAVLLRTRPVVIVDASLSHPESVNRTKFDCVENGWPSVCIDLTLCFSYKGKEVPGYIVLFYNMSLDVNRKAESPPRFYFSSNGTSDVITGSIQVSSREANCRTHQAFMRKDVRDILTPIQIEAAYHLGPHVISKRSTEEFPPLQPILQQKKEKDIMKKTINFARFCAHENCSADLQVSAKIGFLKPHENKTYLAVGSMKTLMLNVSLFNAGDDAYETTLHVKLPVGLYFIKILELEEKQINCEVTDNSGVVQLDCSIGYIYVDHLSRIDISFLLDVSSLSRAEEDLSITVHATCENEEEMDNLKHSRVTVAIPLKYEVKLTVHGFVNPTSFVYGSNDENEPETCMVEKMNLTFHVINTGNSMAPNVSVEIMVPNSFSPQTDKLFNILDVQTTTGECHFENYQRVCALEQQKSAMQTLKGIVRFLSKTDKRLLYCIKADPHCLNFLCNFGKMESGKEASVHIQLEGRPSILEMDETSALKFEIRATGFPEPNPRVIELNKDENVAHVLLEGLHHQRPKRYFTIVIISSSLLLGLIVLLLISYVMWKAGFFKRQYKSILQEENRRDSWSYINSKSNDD
T2 sequence (P26010 20-798): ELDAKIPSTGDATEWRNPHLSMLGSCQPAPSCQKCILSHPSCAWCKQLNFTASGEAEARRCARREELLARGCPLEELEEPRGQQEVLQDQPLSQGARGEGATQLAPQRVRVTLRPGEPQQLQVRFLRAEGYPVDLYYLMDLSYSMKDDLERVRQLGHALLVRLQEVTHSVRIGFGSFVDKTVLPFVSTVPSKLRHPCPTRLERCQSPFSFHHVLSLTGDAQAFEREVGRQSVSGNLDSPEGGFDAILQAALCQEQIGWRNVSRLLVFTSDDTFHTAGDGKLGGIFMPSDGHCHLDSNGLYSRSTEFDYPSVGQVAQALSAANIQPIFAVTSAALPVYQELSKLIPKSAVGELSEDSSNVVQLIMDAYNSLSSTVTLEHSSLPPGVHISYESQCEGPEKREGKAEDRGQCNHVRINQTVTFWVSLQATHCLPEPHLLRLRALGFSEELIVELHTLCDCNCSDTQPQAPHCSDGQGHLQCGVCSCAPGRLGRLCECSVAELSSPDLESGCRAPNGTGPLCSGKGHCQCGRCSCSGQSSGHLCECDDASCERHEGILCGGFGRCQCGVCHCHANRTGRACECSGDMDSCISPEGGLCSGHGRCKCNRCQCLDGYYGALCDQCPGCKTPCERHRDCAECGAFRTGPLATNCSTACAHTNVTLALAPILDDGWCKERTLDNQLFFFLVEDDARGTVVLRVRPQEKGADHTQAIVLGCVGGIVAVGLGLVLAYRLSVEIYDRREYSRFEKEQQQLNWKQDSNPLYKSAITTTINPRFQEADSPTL
Outline: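 Anti-FLAG plates coated 1 h at 4° C with FLAG-hMAdCAM-1 in PBS pH 7.4, 1% BSA, 1 mM Mn2+. Stably transfected K562 cells expressing human α4β7, labelled with CFDA-SE, adhered with compound 1 h at room temperature. After four washes, bound cells lysed in 0.1 M NaOH for fluorescence read-out.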

T1 sequence (P05556 21-798, one chain of several): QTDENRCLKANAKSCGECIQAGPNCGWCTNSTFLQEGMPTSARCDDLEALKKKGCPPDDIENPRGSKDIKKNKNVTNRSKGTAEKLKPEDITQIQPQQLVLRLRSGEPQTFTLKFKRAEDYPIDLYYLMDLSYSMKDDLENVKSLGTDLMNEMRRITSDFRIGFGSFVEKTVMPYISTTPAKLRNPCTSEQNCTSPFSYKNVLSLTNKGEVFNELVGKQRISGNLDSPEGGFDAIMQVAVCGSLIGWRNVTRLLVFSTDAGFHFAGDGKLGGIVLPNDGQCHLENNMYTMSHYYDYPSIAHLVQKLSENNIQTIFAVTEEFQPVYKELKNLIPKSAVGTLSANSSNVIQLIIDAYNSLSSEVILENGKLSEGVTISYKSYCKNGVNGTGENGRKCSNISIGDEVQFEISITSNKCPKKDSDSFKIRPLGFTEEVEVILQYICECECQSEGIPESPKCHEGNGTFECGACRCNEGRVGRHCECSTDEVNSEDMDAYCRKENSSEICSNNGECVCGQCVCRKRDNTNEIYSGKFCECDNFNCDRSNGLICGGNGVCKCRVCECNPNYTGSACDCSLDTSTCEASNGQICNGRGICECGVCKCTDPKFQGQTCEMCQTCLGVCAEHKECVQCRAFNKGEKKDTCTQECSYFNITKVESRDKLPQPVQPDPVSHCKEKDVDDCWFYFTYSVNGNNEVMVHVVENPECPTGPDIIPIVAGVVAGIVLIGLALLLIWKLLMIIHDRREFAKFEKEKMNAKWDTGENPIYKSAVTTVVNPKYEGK

IC50 [1]	IC50 [2]	Compound
> 5000 nM	401 nM	COc1cnn(C)c(=O)c1-c1ccc(C[C@H](NC(=O)C2(NC(=O)OC(C)(C)C)CCCCC2)C(=O)O)cc1 [Cpd 222]
> 5000 nM	52 nM	CC(C)(C)C(=O)Cn1ncc(NC2CC2)c(-c2ccc(C[C@H](NC(=O)c3c(Cl)cccc3Cl)C(=O)O)cc2)c1=O [Cpd 92]
> 1000 nM	230 nM	CCOc1cnn(C(C)(C)C)c(=O)c1-c1ccc(C[C@H](NC(=O)c2c(Cl)cccc2Cl)C(=O)O)cc1 [Cpd 142]
> 5000 nM	1290 nM	Cc1ccc(Oc2cnn(C(C)(C)C)c(=O)c2-c2ccc(C[C@H](NC(=O)c3c(Cl)cccc3Cl)C(=O)O)cc2)cc1 [Cpd 196, (S)-3-[4-(2-tert-Butyl-3-oxo-5-p-tolyloxy-2,3-dihydro-pyridazin-4-yl)-phenyl]-2-(2,6-dichloro-benzoylamino)-propionic acid]
> 5000 nM	529 nM	COc1cnn(C)c(=O)c1-c1ccc(CC(NC(=O)C(C(C)C)n2c(C)cc(C(=O)c3ccccc3)c2C)C(=O)O)cc1 (stereo not drawn) [Cpd 211, 2-[2-(3-Benzoyl-2,5-dimethyl-pyrrol-1-yl)-3-methyl-butyrylamino]-[4-(5-methoxy-2-methyl-3-oxo-2,3-dihydro-pyridazin-4-yl)-phenyl]-propionic acid]
> 5000 nM	640 nM	COc1cnn(C)c(=O)c1-c1ccc(C[C@H](NC(=O)C2(O)CC2)C(=O)O)cc1 [Cpd 217]
> 5000 nM	114 nM	CCOC(=O)Cc1cnn(C)c(=O)c1-c1ccc(C[C@H](NC(=O)c2c(Cl)cccc2Cl)C(=O)O)cc1 [Cpd 121, (S)-2-(2,6-dichloro-benzoylamino)-3-[4-(5ethoxycarbonylmethyl-2-methyl-3-oxo-2,3-dihydro-pyridazin-4-yl)-phenyl]-propionic acid]
> 5000 nM	115 nM	COc1cnn(C)c(=O)c1-c1ccc(C[C@H](NC(=O)C2(NC(=O)OC(C)(C)C)CCCC2)C(=O)O)cc1 [Cpd 223]
269 nM	17 nM	O=C(N[C@@H](Cc1ccc(-c2c(OC3CCC3)cnn(CCO)c2=O)cc1)C(=O)O)c1c(Cl)cccc1Cl [Cpd 53]
> 5000 nM	1280 nM	COc1cnn(C)c(=O)c1-c1ccc(CC(NC(=O)C2CCCN2C(=O)OC(C)(C)C)C(=O)O)cc1 (mixture of isomers) [Cpd 195]
2400 nM	7 nM	COc1cnn(C)c(=O)c1-c1ccc(C[C@H](NC(=O)C(C(C)C)n2c(C)ccc2C)C(=O)O)cc1 (mixture of isomers) [Cpd 33, 2-[2(2,5-Dimethyl-pyrrol-1-yl)-3-methyl-butyrylamino]-3-[4-(5-methoxy-2-methyl-3-oxo-2,3-dihydro-pyridazin-4-yl)-phenyl]-propionic acid]
1490 nM	138 nM	CN[C@H](C(=O)N[C@@H](Cc1ccc(-c2c(OC)cnn(CCN3CCOCC3)c2=O)cc1)C(=O)O)[C@@H](C)OCc1ccccc1 [Cpd 128]
1790 nM	56 nM	COc1cnn(C)c(=O)c1-c1ccc(C[C@H](NC(=O)CN(C)C(=O)OCc2ccccc2)C(=O)O)cc1 [Cpd 96]
249 nM	4 nM	CC(C)Oc1cnn(CCO)c(=O)c1-c1ccc(C[C@H](NC(=O)c2c(Cl)cccc2Cl)C(=O)O)cc1 [Cpd 24]
> 1000 nM	6 nM	CCn1ncc(N2CCOCC2)c(-c2ccc(C[C@H](NC(=O)c3c(Cl)cccc3Cl)C(=O)O)cc2)c1=O [Cpd 29]
5610 nM	36 nM	CSc1cnn(C(C)(C)C)c(=O)c1-c1ccc(C[C@H](NC(=O)c2c(Cl)cccc2Cl)C(=O)O)cc1 [Cpd 78]
> 5000 nM	429 nM	COc1cnn(C)c(=O)c1-c1ccc(C[C@H](NC(=O)c2cc(=O)[nH]c(=O)[nH]2)C(=O)O)cc1 [Cpd 163]

IC50 [1]	IC50 [2]	Compound
3860 nM	18 nM	COc1cnn(-c2ccccc2)c(=O)c1-c1ccc(C[C@H](NC(=O)c2c(Cl)cccc2Cl)C(=O)O)cc1 [Cpd 56]
3800 nM	105 nM	COc1cnn(C)c(=O)c1-c1ccc(C[C@H](NC(=O)c2c(Cl)cccc2Cl)C(=O)NCCO)cc1 [Cpd 119]
49 nM	1 nM	Cn1nc2c(c(-c3ccc(C[C@H](NC(=O)c4c(Cl)cccc4Cl)C(=O)O)cc3)c1=O)OCCO2 [Cpd 6, (S)-2-(2,6-Dichloro-benzoylamino)-3-[4-(2-methyl-3-oxo-2,3,6,7-tetrahydro-[1,4]dioxino[2,3-c]pyridazin-4-yl)-phenyl]-propionic acid]
974 nM	13 nM	COc1cnn(C)c(=O)c1-c1ccc(C[C@H](NC(=O)[C@H](C(C)C)N(C)C(=O)OC(C)(C)C)C(=O)O)cc1 [Cpd 48]
2880 nM	264 nM	COc1cnn(C)c(=O)c1-c1ccc(CC(NC(=O)C(C(C)C)n2c(C)ccc2C)C(=O)O)cc1 (stereo not drawn) [Cpd 213]
272 nM	60 nM	COc1cnn(C)c(=O)c1-c1ccc(C[C@H](NC(=O)[C@@H]2C3CCC(CC3)N2C(=O)CCC(C)C)C(=O)O)cc1 [Cpd 100]
4500 nM	48 nM	COc1cnn(C)c(=O)c1-c1ccc(C[C@H](NC(=O)[C@@H](C(C)C)N(C)C(=O)CCc2ccccc2)C(=O)O)cc1 [Cpd 90]
> 5000 nM	591 nM	COc1cnn(C)c(=O)c1-c1ccc(C[C@H](NC(=O)OCC(C)C)C(=O)O)cc1 [Cpd 175]
> 1000 nM	1320 nM	Nc1cnn(-c2ccccc2)c(=O)c1-c1ccc(C[C@H](NC(=O)c2c(Cl)cccc2Cl)C(=O)O)cc1 [Cpd 197]
> 5000 nM	817 nM	COc1cnn(C)c(=O)c1-c1ccc(C[C@H](NC(=O)C(C)(C)O)C(=O)O)cc1 [Cpd 185]
480 nM	53.5 nM	Cn1ncc(O)c(-c2ccc(C[C@H](NC(=O)c3c(Cl)cccc3Cl)C(=O)O)cc2)c1=O [Cpd 95, (S)-2-(2,6-Dichloro-benzoylamino)-3-[4-(5-hydroxy-2-methyl-3-oxo-2,3-dihydro-pyridazin-4-yl)-phenyl]-propionic acid]
> 1000 nM	133 nM	COc1cnn(C)c(=O)c1-c1ccc(C[C@H](NC(=O)[C@@H](O)C(C)C)C(=O)O)cc1 [Cpd 127]
437 nM	12 nM	O=C(N[C@@H](Cc1ccc(-c2c(OC3CCCC3)cnn(CCO)c2=O)cc1)C(=O)O)c1c(Cl)cccc1Cl [Cpd 43]
1040 nM	46 nM	O=C(N[C@@H](Cc1ccc(-c2c(-n3ncc4ccccc43)cnn(CCO)c2=O)cc1)C(=O)O)c1c(Cl)cccc1Cl [Cpd 88]
> 5000 nM	305 nM	COc1cnn(C)c(=O)c1-c1ccc(CC(NC(=O)C(C(C)C)n2c(C)ccc2C)C(=O)O)cc1 (stereo not drawn) [Cpd 215]
23 nM	2 nM	COc1cnn(C)c(=O)c1-c1ccc(C[C@H](NC(=O)c2c(Cl)c[n+]([O-])cc2Cl)C(=O)O)cc1 [Cpd 9]
